These results are taken from patent US20260242391A1 (priority 2023, published 2026).

Structures are written as SMILES.

A short description of series [1]: in vitro. As to conditions: human.
Series [2] deals with HL-60. Put plainly: HL-60 differentiation potency. Format: cell-based. As to conditions: Homo sapiens.
The subject of series [3] is HL-60. The series can be described thus: HL-60 differentiation potency. Format: cell-based. The following applies: Homo sapiens. This is another data set of the same source.
Series [4] is described as follows: in vitro. The following applies: human. The source holds these as a separate data set.

The term IC50 denotes the concentration needed to halve the response being measured. In general, EC50 refers to the concentration at which the effect is half-maximal. A lower EC50 goes with a more potent agent. As to `C[C@H]1[C@@H](O[C@H]2CC[C@@H](C(=O)NC3(C(=O)O)CC3)CC2)O[C@@H]2O[C@@]3(C)CC[C@H]4[C@H](C)CC[C@@H]1[C@@]24OO3` [Compound 262, 1-((1R,4s)-4-(((3R,5aS,6R,8aS, 9R,10S,12R, 12aR)-3,6,9-trimethyldeca-hydro-12H-3,12-epoxy[1,2]dioxepino[4,3-i]isochromen-10-yl)oxy)cyclohexane-1-carboxamido) cyclopropane-1-carboxylic acid], the IC50 in the series “in vitro [1]” was above 20 µM. Further, the EC50 with HL-60 [2] was 11.4 µM.
For `C[C@H]1[C@@H](OCC2CCN(C(=O)C(=O)O)CC2)O[C@@H]2O[C@@]3(C)CC[C@H]4[C@H](C)CC[C@@H]1[C@@]24OO3` [Compound 203, 2-oxo-2-(4-((((3R,5aS,6R,8aS, 9R,10S,12R, 12aR)-3,6,9-trimethyldeca-hydro-12H-3,12-epoxy[1,2]dioxepino[4,3-i]isochromen-10-yl)oxy)methyl)piperidin-1-yl)acetic acid], in that order: above 20 µM and 17.5 µM.
For `C[C@H]1[C@@H](OCc2ccc(C(=O)NC34CCC(C(=O)O)(C3)C4)cc2)O[C@@H]2O[C@@]3(C)CC[C@H]4[C@H](C)CC[C@@H]1[C@@]24OO3` [Compound 293, 4-(4-((((3R,5aS,6R,8aS, 9R,10S,12R, 12aR)-3,6,9-trimethyldeca-hydro-12H-3,12-epoxy[1,2]dioxepino[4,3-i]isochromen-10-yl)oxy)methyl)benzamido) bicyclo[2.1.1] hexane-1-carboxylic acid], in that order: above 20 µM and 0.0432 µM.
In the series “in vitro [1]” (HL-60 cells), `C[C@H]1[C@@H](Oc2ccc(CC(=O)N[C@H]3C[C@@H](C(=O)O)C3)cc2)O[C@@H]2O[C@@]3(C)CC[C@H]4[C@H](C)CC[C@@H]1[C@@]24OO3` [Compound 292, (1R,3s)-3-(2-(4-(((3R,5aS,6R,8aS, 9R,10S,12R, 12aR)-3,6,9-trimethyldeca-hydro-12H-3,12-epoxy[1,2]dioxepino[4,3-i]isochromen-10-yl)oxy)phenyl)acetamido) cyclobutane-1-carboxylic acid] registered an IC50 above 20 µM. Besides, in the series with HL-60 [2], the EC50 was found to be 0.0429 µM.
As for `C[C@H]1[C@@H](O[C@H]2CC[C@@H](C(=O)N[C@H]3CC[C@@H](C(=O)O)C3)CC2)O[C@@H]2O[C@@]3(C)CC[C@H]4[C@H](C)CC[C@@H]1[C@@]24OO3` [Compound 202, (1R,3S)-3-((1R,4R)-4-(((3R,5aS,6R,8aS, 9R,10S,12R, 12aR)-3,6,9-trimethyldeca-hydro-12H-3,12-epoxy[1,2]dioxepino[4,3-i]isochromen-10-yl)oxy)cyclo-hexane-1-carboxamido) cyclopentane-carboxylic acid], in the series on HL-60 [2], a half-maximal effect (EC50) was put at 4.01 µM.
The same measure, in the same setting: the result for `C[C@H]1[C@@H](Oc2ccc(C(=O)N[C@H]3C[C@@H](C(=O)O)C3)cc2)O[C@@H]2O[C@@]3(C)CC[C@H]4[C@H](C)CC[C@@H]1[C@@]24OO3` [Compound 233, (1R,3s)-3-(4-(((3R,5aS,6R,8aS, 9R,10S,12R, 12aR)-3,6,9-trimethyldeca-hydro-12H-3,12-epoxy[1,2]dioxepino[4,3-i]isochromen-10-yl)oxy)benzamido) cyclobutane-1-carboxylic acid] reads 0.0936 µM.
For `C[C@H]1[C@@H](Oc2ccc(C(=O)N[C@H]3CC[C@@H](C(=O)O)C3)cc2)O[C@@H]2O[C@@]3(C)CC[C@H]4[C@H](C)CC[C@@H]1[C@@]24OO3` [Compound 134, (1R,3S)-3-(4-(((3R,5aS,6R,8aS, 9R,10S,12R, 12aR)-3,6,9-trimethyldeca-hydro-12H-3,12-epoxy[1,2]dioxepino[4,3-i]isochromen-10-yl)oxy)benzamido)cyclo-pentane-1-carboxylic acid], the EC50 in the series with HL-60 [3] was 0.0244 µM. In the series “in vitro [4]”, inhibition was half-maximal at 8 µM (IC50).
The corresponding values for `C[C@H]1[C@H](NC2CS(=O)(=O)C2)O[C@@H]2O[C@@]3(C)CC[C@H]4[C@H](C)CC[C@@H]1[C@@]24OO3` [Compound 52, 3-(((3R,5aS,6R,8aS, 9R,10R,12R, 12aR)-3,6,9-trimethyldeca-hydro-12H-3,12-epoxy[1,2]dioxepino[4,3-i]isochromen-10-yl)amino) thietane 1,1-dioxide] are 2.45 µM and 3.55 µM.
For `C[C@H]1[C@H](OCc2cccc(C(=O)O)c2)O[C@@H]2O[C@@]3(C)CC[C@H]4[C@H](C)CC[C@@H]1[C@@]24OO3` [Compound 91, 3-((((3R,5aS,6R,8aS, 9R,10R,12R, 12aR)-3,6,9-trimethyldeca-hydro-12H-3,12-epoxy[1,2]dioxepino[4,3-i]isochromen-10-yl)oxy)methyl) benzoic acid], in that order: 17.5 µM and above 20 µM.
For `C[C@H]1[C@@H](OCc2cc(Cl)cc(C(=O)O)c2)O[C@@H]2O[C@@]3(C)CC[C@H]4[C@H](C)CC[C@@H]1[C@@]24OO3` [Compound 178, 3-chloro-5-((((3R,5aS,6R,8aS, 9R,10S,12R, 12aR)-3,6,9-trimethyldeca-hydro-12H-3,12-epoxy[1,2]dioxepino[4,3-i]isochromen-10-yl)oxy)methyl) benzoic acid], in that order: 0.243 µM and 4 µM.
`C[C@H]1[C@@H](Oc2ccc(C(C)(C)C(=O)O)cc2Cl)O[C@@H]2O[C@@]3(C)CC[C@H]4[C@H](C)CC[C@@H]1[C@@]24OO3` [Compound 180, 2-(3-chloro-4-(((3R,5aS,6R,8aS, 9R,10S,12R, 12aR)-3,6,9-trimethyldeca-hydro-12H-3,12-epoxy[1,2]dioxepino[4,3-i]isochromen-10-yl)oxy)phenyl)-2-methylpropanoic acid] returned an EC50 in the series on HL-60 [3] of 0.0402 µM. The same compound had an IC50 in “in vitro [4]” of 0.16 µM.
For `C[C@H]1[C@@H](OC2C3CC(C(=O)O)CC32)O[C@@H]2O[C@@]3(C)CC[C@H]4[C@H](C)CC[C@@H]1[C@@]24OO3` (stereo partly drawn) [Compound 158, 6-(((3R,5aS,6R,8aS, 9R,10S,12R, 12aR)-3,6,9-trimethyldeca-hydro-12H-3,12-epoxy[1,2]dioxepino[4,3-i]isochromen-10-yl)oxy)bicyclo [3.1.0]hexane-3-carboxylic acid], in that order: 4.25 µM and above 20 µM.
The corresponding values for `C[C@H]1[C@H](N[C@@H](C)c2ccc(S(C)(=O)=O)cc2)O[C@@H]2O[C@@]3(C)CC[C@H]4[C@H](C)CC[C@@H]1[C@@]24OO3` [Compound 57, (3R,5aS,6R,8aS, 9R,10R,12R, 12aR)-3,6,9-trimethyl-N-((S)-1-(4-(methyl-sulfonyl)phenyl)ethyl)decahydro-12H-3,12-epoxy[1,2] dioxepino[4,3-i] isochromen-10-amine] are 8.49 µM and 9.89 µM.
The corresponding values for `C[C@H]1[C@@H](OCC#Cc2ccc(C(=O)O)cc2F)O[C@@H]2O[C@@]3(C)CC[C@H]4[C@H](C)CC[C@@H]1[C@@]24OO3` [Compound 165, 3-fluoro-4-(3-(((3R,5aS,6R,8aS, 9R,10S,12R, 12aR)-3,6,9-trimethyldeca-hydro-12H-3,12-epoxy[1,2]dioxepino[4,3-i]isochromen-10-yl)oxy)prop-1-yn-1-yl) benzoic acid] are 0.0795 µM and 0.3 µM.
Consider `C[C@H]1[C@@H](OCc2ccc(C(=O)O)cc2Cl)O[C@@H]2O[C@@]3(C)CC[C@H]4[C@H](C)CC[C@@H]1[C@@]24OO3` [Compound 119, 3-chloro-4-((((3R,5aS,6R, 8aS,9R,10S,12R, 12aR)-3,6,9-trimethyldeca-hydro-12H-3,12-epoxy[1,2]dioxepino[4,3-i]isochromen-10-yl)oxy)methyl) benzoic acid], for which it took 0.11 µM to reach a half-maximal effect in the series with HL-60 [3] (EC50). Further, the half-maximal inhibitory concentration (IC50) in “in vitro [4]” is above 20 µM.
The corresponding values for `C[C@H]1[C@@H](OCC23CC(C(=O)O)(C2)C3)O[C@@H]2O[C@@]3(C)CC[C@H]4[C@H](C)CC[C@@H]1[C@@]24OO3` [Compound 55, 3-((((3R,5aS,6R,8aS, 9R,10S,12R, 12aR)-3,6,9-trimethyldeca-hydro-12H-3,12-epoxy[1,2]dioxepino[4,3-i]isochromen-10-yl)oxy)methyl) bicyclo[1.1.1] pentane-1-carboxylic acid] are 7.4 µM and above 20 µM.
As to `C[C@H]1[C@@H](OC[C@H]2CC[C@@H](C(=O)O)N2C)O[C@@H]2O[C@@]3(C)CC[C@H]4[C@H](C)CC[C@@H]1[C@@]24OO3` [Compound 144, (2S,5R)-1-methyl-5-((((3R,5aS,6R,8aS, 9R,10S,12R, 12aR)-3,6,9-trimethyldeca-hydro-12H-3,12-epoxy[1,2]dioxepino[4,3-i]isochromen-10-yl)oxy)methyl) pyrrolidine-2-carboxylic acid], the midpoint of the response in the series on HL-60 [3], the EC50, lay at 3.35 µM. Also, the IC50 in “in vitro [4]” came out at 14.4 µM.
For `C[C@H]1[C@@H](OC2C[C@H]3CC(C(=O)O)C[C@@H]23)O[C@@H]2O[C@@]3(C)CC[C@H]4[C@H](C)CC[C@@H]1[C@@]24OO3` (stereo partly drawn) [Compound 157, (1R,5R)-6-(((3R,5aS,6R,8aS, 9R,10S,12R, 12aR)-3,6,9-trimethyldeca-hydro-12H-3,12-epoxy[1,2]dioxepino[4,3-i]isochromen-10-yl)oxy)bicyclo [3.2.0]heptane-3-carboxylic acid], in that order: 0.797 µM and above 20 µM.
The corresponding values for `C[C@H]1[C@@H](OC[C@H]2CC[C@@H](C(=O)NC(C)(C)C)CC2)O[C@@H]2O[C@@]3(C)CC[C@H]4[C@H](C)CC[C@@H]1[C@@]24OO3` [Compound 153, (1R,4s)-N-(tert-butyl)-4-((((3R,5aS,6R,8aS, 9R,10S,12R, 12aR)-3,6,9-trimethyldeca-hydro-12H-3,12-epoxy[1,2]dioxepino[4,3-i]isochromen-10-yl)oxy)methyl) cyclohexane-1-carboxamide] are 0.0973 µM and 0.54 µM.
The corresponding values for `C[C@H]1[C@@H](OCc2cccc(CC(=O)O)c2)O[C@@H]2O[C@@]3(C)CC[C@H]4[C@H](C)CC[C@@H]1[C@@]24OO3` [Compound 34, 2-(3-((((3R,5aS,6R, 8aS,9R,10S,12R, 12aR)-3,6,9-trimethyldeca-hydro-12H-3,12-epoxy[1,2]dioxepino[4,3-i]isochromen-10-yl)oxy)methyl)phenyl)acetic acid] are 0.48 µM and above 20 µM.
